Laboratory results published in ChEMBL document CHEMBL2202996, “Synthesis, evaluation, and radiolabeling of new potent positive allosteric modulators of the metabotropic glutamate receptor 2 as potential tracers for positron emission tomography imaging” (J Med Chem, 2012).

Tests used:
[1] = tested on: Thalamus; assay: Biodistribution in Wistar rat thalamus at 41 MBq, iv measured at 12 to 28 mins post administration by microPET imaging in presence of JNJ-40068782; assay type: ADME, organism-based; conditions: in vivo
[2] = tested on: Hippocampus; assay: Biodistribution in Wistar rat hippocampus at 41 MBq, iv measured at 12 to 28 mins post administration by microPET imaging in presence of JNJ-40068782; assay type: ADME, organism-based; conditions: in vivo
[3] = tested on: Cortex; assay: Biodistribution in Wistar rat cortex at 41 MBq, iv measured at 12 to 28 mins post administration by microPET imaging in presence of JNJ-40068782; assay type: ADME, organism-based; conditions: in vivo
[4] = tested on: Cerebellum; assay: Biodistribution in Wistar rat cerebellum at 41 MBq, iv measured at 12 to 28 mins post administration by microPET imaging in presence of JNJ-40068782; assay type: ADME, organism-based; conditions: in vivo
[5] = tested on: Striatum; assay: Biodistribution in Wistar rat striatum at 41 MBq, iv measured at 12 to 28 mins post administration by microPET imaging in presence of JNJ-40068782; assay type: ADME, organism-based; conditions: in vivo
[6] = tested on: Thalamus; assay: Biodistribution in Wistar rat thalamus at 41 MBq, iv measured at 12 to 28 mins post administration by microPET imaging; assay type: ADME, organism-based; conditions: in vivo
[7] = tested on: Hippocampus; assay: Biodistribution in Wistar rat hippocampus at 41 MBq, iv measured at 12 to 28 mins post administration by microPET imaging; assay type: ADME, organism-based; conditions: in vivo
[8] = tested on: Cortex; assay: Biodistribution in Wistar rat cortex at 41 MBq, iv measured at 12 to 28 mins post administration by microPET imaging; assay type: ADME, organism-based; conditions: in vivo
[9] = tested on: Cerebellum; assay: Biodistribution in Wistar rat cerebellum at 41 MBq, iv measured at 12 to 28 mins post administration by microPET imaging; assay type: ADME, organism-based; conditions: in vivo
[10] = tested on: Striatum; assay: Biodistribution in Wistar rat striatum at 41 MBq, iv measured at 12 to 28 mins post administration by microPET imaging; assay type: ADME, organism-based; conditions: in vivo
[11] = tested on: Brain; assay: Biodistribution in Wistar rat brain at 41 MBq, iv measured at 27 mins post administration by microPET imaging; assay type: ADME, organism-based; conditions: in vivo, 0.45 h
[12] = tested on: Brain; assay: Biodistribution in Wistar rat brain at 41 MBq, iv measured at 12 mins post administration by microPET imaging; assay type: ADME, organism-based; conditions: in vivo, 0.2 h
[13] = Metabolic stability in Wistar rat cerebellum assessed as intact tracer at 74 MBq, iv measured at 30 mins post administration by gamma counting; assay type: ADME, organism-based; conditions: read-out: Stability
[14] = Metabolic stability in Wistar rat cerebrum assessed as intact tracer at 74 MBq, iv measured at 30 mins post administration by gamma counting; assay type: ADME, organism-based; conditions: read-out: Stability
[15] = Metabolic stability in Wistar rat plasma assessed as intact tracer at 74 MBq, iv measured at 30 mins post administration by gamma counting; assay type: ADME, organism-based; conditions: read-out: Stability
[16] = tested on: Rattus norvegicus; assay: Biodistribution in Wistar rat urinary system at 22 Mbq, iv measured at 60 mins post administration by gamma counting; assay type: ADME, organism-based, Urine; conditions: in vivo, 1 h
[17] = tested on: Liver; assay: Biodistribution in Wistar rat liver at 22 Mbq, iv measured at 60 mins post administration by gamma counting; assay type: ADME, organism-based; conditions: in vivo, 1 h
[18] = tested on: Intestine; assay: Biodistribution in Wistar rat intestine at 22 Mbq, iv measured at 60 mins post administration by gamma counting; assay type: ADME, organism-based; conditions: in vivo, 1 h
[19] = tested on: Blood; assay: Biodistribution in Wistar rat blood at 22 Mbq, iv measured at 60 mins post administration by gamma counting; assay type: ADME, organism-based; conditions: in vivo, 1 h
[20] = tested on: Brain; assay: Ratio of SUV in total brain in iv dosed Wistar at 2 mins post administration by gamma counting to SUV in total brain in iv dosed Wistar at 30 mins post administration by gamma counting; assay type: ADME, organism-based; conditions: rat, in vivo
[21] = tested on: Blood; assay: Biodistribution in Wistar rat blood at 22 Mbq, iv measured at 2 mins post administration by gamma counting; assay type: ADME, organism-based; conditions: in vivo
[22] = tested on: Cerebellum; assay: Ratio of SUV in cerebellum in iv dosed Wistar at 2 mins post administration by gamma counting to SUV in cerebellum in iv dosed Wistar at 30 mins post administration by gamma counting; assay type: ADME, organism-based; conditions: rat, in vivo
[23] = tested on: Cerebrum; assay: Ratio of SUV in cerebrum in iv dosed Wistar at 2 mins post administration by gamma counting to SUV in cerebrum in iv dosed Wistar at 30 mins post administration by gamma counting; assay type: ADME, organism-based; conditions: rat, in vivo
[24] = tested on: Cortex; assay: Ratio of SUV in cortex in iv dosed Wistar at 2 mins post administration by gamma counting to SUV in cortex in iv dosed Wistar at 30 mins post administration by gamma counting; assay type: ADME, organism-based; conditions: rat, in vivo
[25] = tested on: Hippocampus; assay: Ratio of SUV in hippocampus in iv dosed Wistar at 2 mins post administration by gamma counting to SUV in hippocampus in iv dosed Wistar at 30 mins post administration by gamma counting; assay type: ADME, organism-based; conditions: rat, in vivo
[26] = tested on: Striatum; assay: Ratio of SUV in striatum in iv dosed Wistar at 2 mins post administration by gamma counting to SUV in striatum in iv dosed Wistar at 30 mins post administration by gamma counting; assay type: ADME, organism-based; conditions: rat, in vivo
[27] = tested on: Brain; assay: Biodistribution in iv dosed Wistar rat total brain measured at 60 mins post administration by gamma counting; assay type: ADME, organism-based; conditions: in vivo, 1 h
[28] = tested on: Blood; assay: Biodistribution in iv dosed Wistar rat blood measured at 60 mins post administration by gamma counting; assay type: ADME, organism-based; conditions: in vivo, 1 h
[29] = tested on: Cerebellum; assay: Biodistribution in iv dosed Wistar rat cerebellum measured at 60 mins post administration by gamma counting; assay type: ADME, organism-based; conditions: in vivo, 1 h
[30] = tested on: Cortex; assay: Biodistribution in iv dosed Wistar rat cortex measured at 60 mins post administration by gamma counting; assay type: ADME, organism-based; conditions: in vivo, 1 h
[31] = tested on: Cerebrum; assay: Biodistribution in iv dosed Wistar rat cerebrum measured at 60 mins post administration by gamma counting; assay type: ADME, organism-based; conditions: in vivo, 1 h
[32] = tested on: Hippocampus; assay: Biodistribution in iv dosed Wistar rat hippocampus measured at 60 mins post administration by gamma counting; assay type: ADME, organism-based; conditions: in vivo, 1 h
[33] = tested on: Blood; assay: Biodistribution in iv dosed Wistar rat blood measured at 30 mins post administration by gamma counting; assay type: ADME, organism-based; conditions: in vivo, 0.5 h
[34] = tested on: Striatum; assay: Biodistribution in iv dosed Wistar rat striatum measured at 60 mins post administration by gamma counting; assay type: ADME, organism-based; conditions: in vivo, 1 h
[35] = tested on: Brain; assay: Biodistribution in iv dosed Wistar rat total brain measured at 30 mins post administration by gamma counting; assay type: ADME, organism-based; conditions: in vivo, 0.5 h
[36] = tested on: Cerebrum; assay: Biodistribution in iv dosed Wistar rat cerebrum measured at 30 mins post administration by gamma counting; assay type: ADME, organism-based; conditions: in vivo, 0.5 h
[37] = tested on: Cerebellum; assay: Biodistribution in iv dosed Wistar rat cerebellum measured at 30 mins post administration by gamma counting; assay type: ADME, organism-based; conditions: in vivo, 0.5 h
[38] = tested on: Cortex; assay: Biodistribution in iv dosed Wistar rat cortex measured at 30 mins post administration by gamma counting; assay type: ADME, organism-based; conditions: in vivo, 0.5 h
[39] = tested on: Hippocampus; assay: Biodistribution in iv dosed Wistar rat hippocampus measured at 30 mins post administration by gamma counting; assay type: ADME, organism-based; conditions: in vivo, 0.5 h
[40] = tested on: Blood; assay: Biodistribution in iv dosed Wistar rat blood measured at 2 mins post administration by gamma counting; assay type: ADME, organism-based; conditions: in vivo
[41] = tested on: Striatum; assay: Biodistribution in iv dosed Wistar rat striatum measured at 30 mins post administration by gamma counting; assay type: ADME, organism-based; conditions: in vivo, 0.5 h
[42] = tested on: Cerebellum; assay: Biodistribution in iv dosed Wistar rat cerebellum measured at 2 mins post administration by gamma counting; assay type: ADME, organism-based; conditions: in vivo
[43] = tested on: Brain; assay: Biodistribution in iv dosed Wistar rat total brain measured at 2 mins post administration by gamma counting; assay type: ADME, organism-based; conditions: in vivo
[44] = tested on: Cerebrum; assay: Biodistribution in iv dosed Wistar rat cerebrum measured at 2 mins post administration by gamma counting; assay type: ADME, organism-based; conditions: in vivo
[45] = tested on: Hippocampus; assay: Biodistribution in iv dosed Wistar rat hippocampus measured at 2 mins post administration by gamma counting; assay type: ADME, organism-based; conditions: in vivo
[46] = tested on: Cortex; assay: Biodistribution in iv dosed Wistar rat cortex measured at 2 mins post administration by gamma counting; assay type: ADME, organism-based; conditions: in vivo
[47] = tested on: Striatum; assay: Biodistribution in iv dosed Wistar rat striatum measured at 2 mins post administration by gamma counting; assay type: ADME, organism-based; conditions: in vivo
[48] = tested on: Cerebellum; assay: Biodistribution in Wistar rat cerebellum at 22 Mbq, iv measured at 2 mins post administration by gamma counting; assay type: ADME, organism-based; conditions: in vivo
[49] = tested on: Cerebrum; assay: Biodistribution in Wistar rat cerebrum at 22 Mbq, iv measured at 2 mins post administration by gamma counting; assay type: ADME, organism-based; conditions: in vivo
[50] = tested on: Brain; assay: Biodistribution in Wistar rat brain at 22 Mbq, iv measured at 2 mins post administration by gamma counting; assay type: ADME, organism-based; conditions: in vivo

For `[11CH3]Oc1c(F)ccc(F)c1C1CCN(c2ccn3c(CC4CC4)nnc3c2Cl)CC1`, the Drug uptake [1] was “Not Active”, the Drug uptake [2] was “Not Active” and the Drug uptake [3] was “Not Active”. The Drug uptake [4] was “Not Active”, the Drug uptake [5] was “Not Active” and the Drug uptake [6] was “Active”. For the same compound, the Drug uptake [7] was “Active”, the Drug uptake [8] was “Active” and the Drug uptake [9] was “Active”. The Drug uptake [10] was “Active”, the SUV [11] was 1.7 and the SUV [12] was 1.7. It also gave a remaining at 0.5 h [13] of 95.5%, a remaining at 0.5 h [14] of 90.3% and a remaining at 0.5 h [15] of 69.7%. It also gave a Drug uptake [16] of 2.4 %ID, a Drug uptake [17] of 35.7% and a Drug uptake [18] of 35.7%. The Drug uptake [19] was 2 %ID, the Ratio [20] was 0.65 and the Drug uptake [21] was 4.3 %ID. For the same compound, the Ratio [22] was 0.61, the Ratio [23] was 0.67 and the Ratio [24] was 0.82. It also gave a Ratio [25] of 0.6, a Ratio [26] of 0.57 and an SUV [27] of 1.18. It also gave an SUV [28] of 0.28, an SUV [29] of 1.75 and an SUV [30] of 1.28. The SUV [31] was 1.11, the SUV [32] was 0.73 and the SUV [33] was 0.39. The SUV [34] was 1.72, the SUV [35] was 2.13 and the SUV [36] was 1.96. The SUV [37] was 2.62, the SUV [38] was 1.77 and the SUV [39] was 1.49. It also gave an SUV [40] of 0.61, an SUV [41] of 2.14 and an SUV [42] of 1.59. For the same compound, the SUV [43] was 1.39, the SUV [44] was 1.32 and the SUV [45] was 0.9. It also gave an SUV [46] of 1.46, an SUV [47] of 1.22 and a Drug uptake [48] of 0.17 %ID. It also gave a Drug uptake [49] of 0.69 %ID and a Drug uptake [50] of 0.88 %ID.
